# Literature values as cited in patent US20180228856A1, “Antibacterial combination of Basil oil and Taiwan red cypress oil for preventing drug-resistant S. aureus infections and the use thereof” (priority 2017, published 2018).
# Test system: VISA strain Z172
# Settings: strain characteristic of Z172
row,Compound,minimum inhibitory concentration (MIC) [µg/mL]
1,CN[C@H](CC(C)C)C(=O)N[C@H]1C(=O)N[C@@H](CC(N)=O)C(=O)N[C@H]2C(=O)N[C@H]3C(=O)N[C@H](C(=O)N[C@H](C(=O)O)c4cc(O)cc(O)c4-c4cc3ccc4O)[C@H](O)c3ccc(c(Cl)c3)Oc3cc2cc(c3O[C@@H]2O[C@H](CO)[C@@H](O)[C@H](O)[C@H]2O[C@H]2C[C@](C)(N)[C@H](O)[C@H](C)O2)Oc2ccc(cc2Cl)[C@H]1O [vancomycin],4
2,CCCCCCCCCC(=O)N[C@@H](Cc1c[nH]c2ccccc12)C(=O)N[C@H](CC(N)=O)C(=O)N[C@@H](CC(=O)O)C(=O)N[C@@H]1C(=O)NCC(=O)N[C@@H](CCCN)C(=O)N[C@@H](CC(=O)O)C(=O)N[C@H](C)C(=O)N[C@@H](CC(=O)O)C(=O)NCC(=O)N[C@H](CO)C(=O)N[C@@H]([C@H](C)CC(=O)O)C(=O)N[C@@H](CC(=O)c2ccccc2N)C(=O)O[C@@H]1C [daptomycin],> 4
